Values quoted from earlier work as cited in patent US20110229902A1, “METHOD FOR DETERMINING THE […] OF FUNGI AND YEASTS, IN PARTICULAR OF A[…]” (STICHTING TER B[…] DE FARMACODYNAMIEK, priority 2008, published 2011).

Tests used:
Design in all cases: key: R = resistant; S = sensitive
[1] = tested on: Aspergillus fumigatus cyp51A L98H + TR; details: A. fumigatus isolate with cyp51A L98H + TR (tandem repeat in promoter)
[2] = tested on: Aspergillus fumigatus cyp51A G54X; details: A. fumigatus isolate with cyp51A mutation G54X
[3] = tested on: Aspergillus fumigatus cyp51A M220X; details: A. fumigatus isolate with cyp51A mutation M220X
[4] = tested on: Aspergillus fumigatus cyp51A G54W; details: A. fumigatus isolate with cyp51A mutation G54W
[5] = tested on: Aspergillus fumigatus cyp51A G138C; details: A. fumigatus isolate with cyp51A mutation G138C

For `C[C@@H](c1ncncc1F)[C@](O)(Cn1cncn1)c1ccc(F)cc1F` [Voriconazole], the “resistance status (resistant or sensitive)” value (“resistance status” for short) [1] is given as “R”, the “resistance status” value [2] is given as “S” and the “resistance status” value [3] is given as “S”. The “resistance status” value [4] was “S” and the “resistance status” value [5] was “R”.

For `C[C@@H](c1nc(-c2ccc(C#N)cc2)cs1)[C@](O)(Cn1cncn1)c1ccc(F)cc1F` [Ravuconazole], the “resistance status” value [1] is given as “R”, the “resistance status” value [2] is given as “S” and the “resistance status” value [3] is given as “S”. For the same compound, the “resistance status” value [4] was “S” and the “resistance status” value [5] was “R”.

For `CC[C@@H]([C@H](C)O)n1ncn(-c2ccc(N3CCN(c4ccc(OC[C@@H]5CO[C@@](Cn6cncn6)(c6ccc(F)cc6F)C5)cc4)CC3)cc2)c1=O` [Posaconazole], the “resistance status” value [1] is listed as “S”, the “resistance status” value [2] is listed as “S” and the “resistance status” value [3] is listed as “S”. The “resistance status” value [4] was “R” and the “resistance status” value [5] was “S”.
